In patent US20040076968A1, “Method for detecting pre-disposition to hepatotoxicity” (priority 2000, published 2004):

Assays:
[1] = human subjects; cited from earlier work
[2] = system: UGT1A7 gene; experiment: Association of UGT1A7 polymorphisms with liver function abnormality in tolcapone-treated patients (case-control genotyping); type: in vivo, human
Description: Disease severity had already been controlled for by the original study inclusion criteria.
For all other single nucleotide polymorphisms (SNPs) discovery and genotyping was done by double-stranded DNA sequencing using an ABI capillary sequencer and Big Dye chemistry (ABI). The primers used to amplify all exons are shown below and were also used as sequencing primers. Publicly available genomic sequences were used as references for primer design. All polymorphisms were targeted with these pairs-of-primer sets:
Fourty nanograms of genomic DNA were PCR-amplified in 50 μl reactions using an automated PCR machine. Reaction conditions varied as follows. For the amplification of the UGT1A6-fragment conditions were as follows: 10 mM Tris pH 8.3, 50 mM KCl, 1.5 mM MgCl2, 0.2 mM of each dNTP, 0.4 μM of each primer and 1.5U Boehringer Taq Polymerase. The thermocycling protocol consisted of an initial incubation of 95° C. for 15 min. followed by 35 cycles of 94° C. for 1 min., 57° C. for 30 sec., 72° C. for 1 min., and one final extension step of 72° C. for 10 min. The UGT1A7-1 fragment was amplified using Qiagen PCR buffer with 1.5 mM MgCl2, 0.2 mM of each dNTP, 0.4 μM of each primer and 1.5U Boehringer Taq Polymerase. The thermocycling protocol was the same as for UGT1A6-fragment with one exception: the annealing temperature was 61° C. For UGT1A7-2 fragment PCR conditions were as follows: 150 mM Tris pH 8.5, 15 mM (NH4)2SO4, 3.5 mM MgCl2, 0.2 mM of each dNTP, 0.4 μM of each primer and 1.5U Qiagen Hot Start Taq Polymerase. Thermocycling was done using a touch-down PCR protocol. After an iniatial amplification of 95° C. for 10 min. followed 5 cycles of 95° C. for 1 min., 62° C. for 30 sec. (minus 0.5° C. per cycle), 72° C. for 1 min and thirty cycles of 95° C. for 1 min., 60° C. for 30 sec., 72° C. for 1 min. and a final extension step of 72° C. for 10 min. After PCR amplification fragments were purified using the Qiaquick PCR purification kit on a Biorobot 9600. Cycle sequencing was performed on an automated PCR machine using ABI Big Dye terminator chemistry according to the manufacturer's intruction with the following changes: 2.5-5 ng/100 bp of PCR product were mixed with 2 μl Big Dye terminatior mix, oligonucleotide primer concentration was 10 pmol, if necessary 5% DMSO was added to the reaction; the final reaction volume was 10 μl. Sequencing reactions were subjected to 28 cycles at 93° C. for 30 sec, 48° C. for 30 sec, and 58° C. for 120 sec., followed by an ethanol/NaOAc precipitation. After decanting the ethanol, samples were evaporated to dryness using a SpeedVac for 2 min. and were resuspended in 45 μl ultrapure water (MERCK, HPLC grade). […] were loaded on an ABI 3700 capillary sequencer using POP5 as a polymer. After sequencing, the polymorphism analyses were done using Polyphred software (licenced from University of Washington).
The patient samples were divided into two groups.
For each genotype, the following analyses were performed:
a) Analysis of the entire genotype: patients were classified according to the following three categories: homozygous 1/1 (two copies of allele 1 and no copies of allele 2), heterozygous 1/2 (one copy of allele 1 and one copy of allele 2) or homozygous 2/2 (no copies of allele 1 and two copies of allele 2). Analysis was conducted to assess whether there were differences in the proportion of case patients in each of these groups, compared with the proportion of control patients. The Cochran-Maentel-Hanszel (CMH) test was applied to the data presented in a 2-by-3 table (the two columns indicating presence or absence of liver function abnormality and the three rows indicating the three categories of the genotype).

[3] = Clinical trials for tolcapone in patients with Parkinson's disease: liver transaminases; type: in vivo, human; conditions: rare circumstances
Description: There was therefore a desire to establish whether there is a correlation between the occurrence of such liver abnormalities, which are indicators of liver toxicity and certain genetic pre-dispositions.

Cc1ccc(C(=O)c2cc(O)c(O)c([N+](=O)[O-])c2)cc1 [tolcapone]
main pathway of elimination from the body [1]: glucuronidation
n (%) of patients ([2]; UGT1A7_197 C/G, Allele A Absent, Liver Function Abnormality Absent): 125 (46.5%)
n (%) of patients ([2]; UGT1A7_197 C/G, Allele A Absent, Liver Function Abnormality Present): 46 (34.6%)
n (%) of patients ([2]; UGT1A7_197 C/G, Allele A Present, Liver Function Abnormality Absent): 144 (53.5%)
n (%) of patients ([2]; UGT1A7_197 C/G, Allele A Present, Liver Function Abnormality Present): 87 (65.4%)
n (%) of patients ([2]; UGT1A7_197 C/G, Allele C Absent, Liver Function Abnormality Absent): 32 (11.9%)
n (%) of patients ([2]; UGT1A7_197 C/G, Allele C Absent, Liver Function Abnormality Present): 25 (18.8%)
n (%) of patients ([2]; UGT1A7_197 C/G, Allele C Present, Liver Function Abnormality Absent): 237 (88.1%)
n (%) of patients ([2]; UGT1A7_197 C/G, Allele C Present, Liver Function Abnormality Present): 108 (81.2%)
n (%) of patients ([2]; UGT1A7_197 C/G, Genotype Heterozygous A/C, Liver Function Abnormality Absent): 112 (41.6%)
n (%) of patients ([2]; UGT1A7_197 C/G, Genotype Heterozygous A/C, Liver Function Abnormality Present): 62 (46.6%)
n (%) of patients ([2]; UGT1A7_197 C/G, Genotype Homozygous A/A, Liver Function Abnormality Absent): 32 (11.9%)
n (%) of patients ([2]; UGT1A7_197 C/G, Genotype Homozygous A/A, Liver Function Abnormality Present): 25 (18.8%)
n (%) of patients ([2]; UGT1A7_197 C/G, Genotype Homozygous C/C, Liver Function Abnormality Absent): 125 (46.5%)
n (%) of patients ([2]; UGT1A7_197 C/G, Genotype Homozygous C/C, Liver Function Abnormality Present): 46 (34.6%)
n (%) of patients ([2]; UGT1A7_551 Asn129Lys, Allele G Absent, Liver Function Abnormality Absent): 49 (18.2%)
n (%) of patients ([2]; UGT1A7_551 Asn129Lys, Allele G Absent, Liver Function Abnormality Present): 14 (10.6%)
n (%) of patients ([2]; UGT1A7_551 Asn129Lys, Allele G Present, Liver Function Abnormality Absent): 220 (81.8%)
n (%) of patients ([2]; UGT1A7_551 Asn129Lys, Allele G Present, Liver Function Abnormality Present): 118 (89.4%)
n (%) of patients ([2]; UGT1A7_551 Asn129Lys, Allele T Absent, Liver Function Abnormality Absent): 96 (35.7%)
n (%) of patients ([2]; UGT1A7_551 Asn129Lys, Allele T Absent, Liver Function Abnormality Present): 59 (44.7%)
n (%) of patients ([2]; UGT1A7_551 Asn129Lys, Allele T Present, Liver Function Abnormality Absent): 173 (64.3%)
n (%) of patients ([2]; UGT1A7_551 Asn129Lys, Genotype Heterozygous G/T, Liver Function Abnormality Absent): 124 (46.1%)
n (%) of patients ([2]; UGT1A7_551 Asn129Lys, Genotype Heterozygous G/T, Liver Function Abnormality Present): 59 (44.7%)
n (%) of patients ([2]; UGT1A7_551 Asn129Lys, Genotype Homozygous G/G, Liver Function Abnormality Absent): 96 (35.7%)
n (%) of patients ([2]; UGT1A7_551 Asn129Lys, Genotype Homozygous G/G, Liver Function Abnormality Present): 59 (44.7%)
n (%) of patients ([2]; UGT1A7_551 Asn129Lys, Genotype Homozygous T/T, Liver Function Abnormality Absent): 49 (18.2%)
n (%) of patients ([2]; UGT1A7_551 Asn129Lys, Genotype Homozygous T/T, Liver Function Abnormality Present): 14 (10.6%)
n (%) of patients ([2]; UGT1A7_555 silent or Arg131Lys, Allele A Absent, Liver Function Abnormality Absent): 49 (18.2%)
n (%) of patients ([2]; UGT1A7_555 silent or Arg131Lys, Allele A Absent, Liver Function Abnormality Present): 14 (10.6%)
n (%) of patients ([2]; UGT1A7_555 silent or Arg131Lys, Allele A Present, Liver Function Abnormality Absent): 220 (81.8%)
n (%) of patients ([2]; UGT1A7_555 silent or Arg131Lys, Allele A Present, Liver Function Abnormality Present): 118 (89.4%)
n (%) of patients ([2]; UGT1A7_555 silent or Arg131Lys, Allele C Absent, Liver Function Abnormality Absent): 96 (35.7%)
n (%) of patients ([2]; UGT1A7_555 silent or Arg131Lys, Allele C Absent, Liver Function Abnormality Present): 58 (43.9%)
n (%) of patients ([2]; UGT1A7_555 silent or Arg131Lys, Allele C Present, Liver Function Abnormality Absent): 173 (64.3%)
n (%) of patients ([2]; UGT1A7_555 silent or Arg131Lys, Allele C Present, Liver Function Abnormality Present): 74 (56.1%)
n (%) of patients ([2]; UGT1A7_555 silent or Arg131Lys, Genotype Heterozygous A/C, Liver Function Abnormality Absent): 124 (46.1%)
n (%) of patients ([2]; UGT1A7_555 silent or Arg131Lys, Genotype Heterozygous A/C, Liver Function Abnormality Present): 60 (45.5%)
n (%) of patients ([2]; UGT1A7_555 silent or Arg131Lys, Genotype Homozygous A/A, Liver Function Abnormality Absent): 96 (35.7%)
n (%) of patients ([2]; UGT1A7_555 silent or Arg131Lys, Genotype Homozygous A/A, Liver Function Abnormality Present): 58 (43.9%)
n (%) of patients ([2]; UGT1A7_555 silent or Arg131Lys, Genotype Homozygous G/G, Liver Function Abnormality Absent): 49 (18.2%)
n (%) of patients ([2]; UGT1A7_555 silent or Arg131Lys, Genotype Homozygous G/G, Liver Function Abnormality Present): 14 (10.6%)
n (%) of patients ([2]; UGT1A7_556 Arg131Lys or Gln, Allele A Absent, Liver Function Abnormality Absent): 49 (18.3%)
n (%) of patients ([2]; UGT1A7_556 Arg131Lys or Gln, Allele A Absent, Liver Function Abnormality Present): 14 (10.6%)
n (%) of patients ([2]; UGT1A7_556 Arg131Lys or Gln, Allele A Present, Liver Function Abnormality Absent): 219 (81.7%)
n (%) of patients ([2]; UGT1A7_556 Arg131Lys or Gln, Allele A Present, Liver Function Abnormality Present): 118 (89.4%)
n (%) of patients ([2]; UGT1A7_556 Arg131Lys or Gln, Allele G Absent, Liver Function Abnormality Absent): 96 (35.8%)
n (%) of patients ([2]; UGT1A7_556 Arg131Lys or Gln, Allele G Absent, Liver Function Abnormality Present): 59 (44.7%)
n (%) of patients ([2]; UGT1A7_556 Arg131Lys or Gln, Allele G Present, Liver Function Abnormality Absent): 172 (64.2%)
n (%) of patients ([2]; UGT1A7_556 Arg131Lys or Gln, Allele G Present, Liver Function Abnormality Present): 73 (55.3%)
n (%) of patients ([2]; UGT1A7_556 Arg131Lys or Gln, Genotype Heterozygous A/G, Liver Function Abnormality Absent): 123 (45.9%)
n (%) of patients ([2]; UGT1A7_556 Arg131Lys or Gln, Genotype Heterozygous A/G, Liver Function Abnormality Present): 59 (44.7%)
n (%) of patients ([2]; UGT1A7_556 Arg131Lys or Gln, Genotype Homozygous A/A, Liver Function Abnormality Absent): 96 (35.8%)
n (%) of patients ([2]; UGT1A7_556 Arg131Lys or Gln, Genotype Homozygous A/A, Liver Function Abnormality Present): 44 (33.8%)
n (%) of patients ([2]; UGT1A7_556 Arg131Lys or Gln, Genotype Homozygous G/G, Liver Function Abnormality Absent): 49 (18.3%)
n (%) of patients ([2]; UGT1A7_556 Arg131Lys or Gln, Genotype Homozygous G/G, Liver Function Abnormality Present): 14 (10.6%)
n (%) of patients ([2]; UGT1A7_786 Trp208Arg, Allele G Absent, Liver Function Abnormality Absent): 124 (46.3%)
n (%) of patients ([2]; UGT1A7_786 Trp208Arg, Allele G Absent, Liver Function Abnormality Present): 46 (34.3%)
n (%) of patients ([2]; UGT1A7_786 Trp208Arg, Allele G Present, Liver Function Abnormality Absent): 144 (53.7%)
n (%) of patients ([2]; UGT1A7_786 Trp208Arg, Allele G Present, Liver Function Abnormality Present): 86 (65.7%)
n (%) of patients ([2]; UGT1A7_786 Trp208Arg, Allele T Absent, Liver Function Abnormality Absent): 30 (11.2%)
n (%) of patients ([2]; UGT1A7_786 Trp208Arg, Allele T Absent, Liver Function Abnormality Present): 26 (19.4%)
n (%) of patients ([2]; UGT1A7_786 Trp208Arg, Allele T Present, Liver Function Abnormality Absent): 238 (88.8%)
n (%) of patients ([2]; UGT1A7_786 Trp208Arg, Allele T Present, Liver Function Abnormality Present): 108 (80.6%)
n (%) of patients ([2]; UGT1A7_786 Trp208Arg, Genotype Heterozygous T/C, Liver Function Abnormality Absent): 114 (42.5%)
n (%) of patients ([2]; UGT1A7_786 Trp208Arg, Genotype Heterozygous T/C, Liver Function Abnormality Present): 62 (46.3%)
n (%) of patients ([2]; UGT1A7_786 Trp208Arg, Genotype Homozygous C/C, Liver Function Abnormality Absent): 30 (11.2%)
n (%) of patients ([2]; UGT1A7_786 Trp208Arg, Genotype Homozygous C/C, Liver Function Abnormality Present): 26 (19.4%)
n (%) of patients ([2]; UGT1A7_786 Trp208Arg, Genotype Homozygous T/T, Liver Function Abnormality Absent): 124 (46.3%)
n (%) of patients ([2]; UGT1A7_786 Trp208Arg, Genotype Homozygous T/T, Liver Function Abnormality Present): 46 (34.3%)
effect on liver transaminase activity [3]: reversible asymptomatic increase in liver transaminase activity
